Data published in patent US10842845B2, “Oxytocin improves treatment of obstructive sleep apnea” (THE GEORGE WASHINGTON UNIVERSITY, priority 2014, dated 2020).

Legend:
[1] = molecular target: T1, DREADDs receptors on PVN OXT neurons (Homo sapiens, UniProt P20309, A239G/Y149C); test: MAP over 21 days of CIH/H exposure with daily PVN OXT neuron activation (daily CNO); type: in vivo, Sprague-Dawley rats; settings: n=8
T1 construct: mCherry (C); host or cells: PVN oxytocin neurons of Sprague-Dawley rats, in vivo, transduced with AAV2-hSyn-DIO-hM3D(Gq)-mCherry and rAAV1-OXT-Cre
Excerpt: To record blood pressure and heart rate, male Sprague-Dawley rats, 3-4 weeks of age, were anesthetized using isoflurane (2-4%) and a HD-XII pressure transmitter was implanted (Data Sciences International, St Paul, Minn., USA) with its cathether inserted into the abdominal aorta to record pressure and EKG leads were attached subcutaneously to obtain EKG recordings and heart rate. All rats with telemetry devices were allowed 7-14 days to recover from transmitter implantation surgery before any measurements were recorded. Blood pressure and heart rate were recorded via radio-frequency signals obtained through the Ponemah data acquisition system (Data Sciences International). Baseline recordings of blood pressure and heart rate were obtained for 3 days prior to CIH/H exposure. Prior to, and during, the 28 day CIH/H exposure period daily baseline recordings of blood pressure and heart rate were recorded.
Animals were exposed to repetitive cycles of 3 minutes of mild H/H (6% O2+5% CO2+89%, N2) followed by 3 minutes of normoxia (21% O2+79% N2), repeated for 10 times per hour, 8 hr/day, for 3 or 4 weeks. The animals were exposed to CIH/H for 8 hours during light phase and to normal air during the remaining 16 hr. Unexposed animals that were exposed to normal air (21% O2+79% N2), were placed adjacent to the chambers during the exposure period to undergo similar handling, general lab conditions, and background noise as the CIH/H group.
(§1) 1-2 weeks after telemetry implantation, DREADDs receptors on PVN OXT neurons were activated daily by intraperitoneal (IP) injection of clozapine-n-oxide (CNO, 1.0 mg/kg). To investigate the effects of CNO on resting BP and HR in both DREADDs-expressing and sham animals, 3 days prior to CIH/H exposure (control days) baseline BP and HR values were recorded for a 20 min period before CNO injection. Animals from each group then received an IP injection of CNO, BP and HR were recorded for 1 hr, and the animals then underwent exposure to air for 8 hr to achieve acclimation to the chambers. During the 21 days of CIH/H exposure, baseline recordings of BP and HR were obtained before CNO injection, recorded for 1 hr post CNO injection, and for the entire duration of OHM exposure.
To examine the effects of CNO on and the chronic changes to mean arterial blood pressure (MAP) over the 21 days of OHM exposure, values were recorded before and after CNO injection on control days prior to CIH exposures, and days 1, 3, 6, 9, 12, 15, 18, and 21 of CIH/H. Changes within the DREADDs-expressing animals and the sham animals were statistically analyzed by one-way ANOVA with repeated-measures followed by Bonferroni's multiple comparison test. […]

[2] = test system: OXT receptors; test: Calcium imaging in OXT receptor-expressing CHO cells on brainstem slices upon photoactivation of ChR2-containing PVN fibers; type: cell-based, rat; settings: from baseline during first second; CIH/H animals with daily injections of CNO (chronic OXT neuron activation); n=17; CIH/H alone 8.1±0.01%
Protocol: Visualization of CHO cells expressing OXT receptors and the calcium indicator, as well as ChR2-containing PVN fibers, were performed on a confocal microscope system as previously described (Gamer and Buchel, 2012). To examine activation of OXT receptors upon optogenetic activation of ChR2-expressing PVN fibers in the DMV, CHO cells were pipetted onto the dorsal motor nucleus (DMV) of brain stem slices from animals previously injected with pLenti-Syn-hChR2(H134R)-EYFP-WPRE into the PVN, OXT-sensitive CHO cells within the boundaries of the DMV and in close apposition to ChR2-containing PVN fibers (7.5±0.5 μm) were used for experiments.
as §1, with “During the 21 days of CIH/H exposure, baseline recordings of BP and HR were obtained before CNO injection, recorded for 1 hr post CNO injection, and for the entire duration of OHM exposure.” left out

T1 sequence (P20309 whole entry Y149C/A239G, the tested form may be a part): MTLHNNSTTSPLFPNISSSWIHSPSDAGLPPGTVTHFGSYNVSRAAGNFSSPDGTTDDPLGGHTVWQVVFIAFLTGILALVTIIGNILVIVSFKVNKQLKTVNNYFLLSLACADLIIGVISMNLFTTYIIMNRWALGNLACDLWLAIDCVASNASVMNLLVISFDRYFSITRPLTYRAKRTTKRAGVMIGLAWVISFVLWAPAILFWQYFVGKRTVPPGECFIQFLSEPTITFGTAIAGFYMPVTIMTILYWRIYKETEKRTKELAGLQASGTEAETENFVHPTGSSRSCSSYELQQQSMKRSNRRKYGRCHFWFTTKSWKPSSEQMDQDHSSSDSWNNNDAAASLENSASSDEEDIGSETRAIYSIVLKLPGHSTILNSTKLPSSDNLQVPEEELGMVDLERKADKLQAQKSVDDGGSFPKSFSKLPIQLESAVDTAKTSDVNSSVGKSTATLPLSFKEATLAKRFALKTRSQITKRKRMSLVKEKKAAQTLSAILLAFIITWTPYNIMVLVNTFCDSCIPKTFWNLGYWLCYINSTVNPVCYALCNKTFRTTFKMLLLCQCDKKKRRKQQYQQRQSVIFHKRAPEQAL

C[N+]1([O-])CCN(C2=Nc3cc(Cl)ccc3Nc3ccccc32)CC1 [CNO, clozapine-n-oxide]
MAP in DREADDs-expressing group, Day 12 ([1]; Day 12 of CIH/H, sham group 117±4.1 mmHg): 105±2.6 mmHg | MAP in DREADDs-expressing group, Day 15 ([1]; Day 15 of CIH/H, sham group 118±2.6 mmHg): 105±3.1 mmHg | MAP in DREADDs-expressing group, Day 18 ([1]; Day 18 of CIH/H, sham group 122±1.1 mmHg): 104±2.9 mmHg | MAP in DREADDs-expressing group, Day 21 ([1]; Day 21 of CIH/H, 104±2.6 mmHg on control days, sham group 120±0.5 mmHg): 103±3.0 mmHg | average increase in intracellular calcium in OXT-sensitive CHO cells upon photostimulation of ChR2-containing PVN fibers in the DMV [2]: 23.4±0.03%
